Patent publication US9175045B2, “Peptidomimetic macrocycles” (Aileron Therapeutics, Inc., priority 2008, dated 2015)
Numbered stars: 1 amine (or outer) side, 2 acyl side, 3 side chain; on linkers, the order of the positions; unused ones are H or OH. Bridge positions count the residues as written; N and C are the ends. Square brackets hold non-standard residues; d marks the D form. Peptide text beside a SMILES is read from it. * marks the point of attachment. ξ: configuration not given here. ξαMeNle(6-ylidene) = CC(CCCC=[*:3])(N[*:1])C(=O)[*:2]; S5 = C=CCCC[C@](C)(N)C(=O)O; Nle = CCCC[C@H](N)C(=O)O; Aib = CC(C)(N)C(=O)O; Propionyl = CCC(=O)*

Assays:
Jurkat cell line = format: cell-based; conditions: for EC50: 24 h
Procedure: Jurkat cell line (Clone E6-1, ATCC catalog #TIB-152) is grown in specific serum-supplemented media (RPMI-1640, Invitrogen catalog #22400) as recommended by ATCC. A day prior to the initiation of the study, cells are split at optimal cell density (2×10^5-5×10^5 cells/ml) to assure actively dividing cells. The next day, cells are washed twice in serum-free Opti-MEM media (Invitrogen, Catalog #51985) and cells are then plated at optimal cell density (10,000 cells/well) in 50 μl Opti-MEM media or Opti-MEM supplemented with 2% or 10% human serum (Bioreclamation, catalog #HMSRM) in 96-well white tissue culture plate (Nunc, catalog #136102).
For serum free experiment, crosslinked polypeptides are diluted from 2 mM stocks (100% DMSO) in sterile water to prepare 400 μM working solutions. The crosslinked polypeptides and controls are diluted 10-fold first and then serially two-fold diluted in Opti-MEM in dosing plates to provide concentrations of between 1.2 and 40 μM. 50 μl of each dilution is then added to the appropriate wells of the test plate to achieve final concentrations of the polypeptides equal to between 0.6 to 20 μM. For studies using Opti-MEM supplemented with human serum (Bioreclamation, catalog #HMSRM), crosslinked polypeptides are diluted from 10 mM stocks (100% DMSO) in sterile water to prepare 2 mM working solutions. The crosslinked polypeptides and controls are diluted 10-fold first and then serially two-fold diluted in Opti-MEM in the presence of 2% or 10% of human serum to provide concentrations of the polypeptides equal to between 6.25 to 200 μM in dosing plates. 50 μl of each dilution is then added to the appropriate wells of the test plate to achieve final concentrations of the polypeptides equal to between 3.125 to 100 μM. Controls included wells without polypeptides containing the same concentration of DMSO as the wells containing the macrocycles, wells containing 0.1% Triton X-100 and wells containing no cells. Plates are incubated for 24 hours at 37° C. in humidified 5% CO2 atmosphere.
At the end of the incubation period, CellTiter-Glo assay is performed according to manufacturer's instructions (Promega, catalog #G7573) and luminescence is measured using Synergy HT Plate reader (BioTek). Luminescence correlates with viability. A reduction in viability reflects the ability of the test compounds to induce programmed cell death via BAX and BAK.

human serum proteins = assay: Apparent affinity to human serum proteins (Kd*) by EC50 shift analysis; format: in vitro ADME; conditions: nonlinear regression of EC50 shift with serum, n = 1, P = 700 μM for 100% serum
Excerpt: The measurement of apparent Kd values for serum protein by EC50 shift analysis provides a simple and rapid means of quantifying the propensity of experimental compounds to bind HSA and other serum proteins. A linear relationship exists between the apparent EC50 in the presence of serum protein (EC′50) and the amount of serum protein added to an in vitro assay. This relationship is defined by the binding affinity of the compound for serum proteins, expressed as Kd*. This term is an experimentally determined, apparent dissociation constant that may result from the cumulative effects of multiple, experimentally indistinguishable, binding events. The form of this relationship is presented here in Eq. 0.3, and its derivation can be found in Copeland et al, Biorg. Med. Chem. Lett. 2004, 14:2309-2312. [formula] A significant proportion of serum protein binding can be ascribed to drug interactions with HSA, due to the very high concentration of this protein in serum (35-50 g/L or 530-758 μM). To calculate the Kd value for these compounds we have assumed that the shift in EC50 upon protein addition can be ascribed fully to the HSA present in the added serum, where P is 700 μM for 100% serum, P is 70 μM for 10% serum, etc. We further made the simplifying assumption that all of the compounds bind HSA with a 1:1 stoichiometry, so that the term n in Eq. (0.3) is fixed at unity. With these parameters in place we calculated the Kd* value for each stapled peptide from the changes in EC50 values with increasing serum (and serum protein) concentrations by nonlinear regression analysis of Eq. 0.3 using Mathematica 4.1 (Wolfram Research, Inc., www.wolfram.com). EC′50 values in whole blood are estimated by setting P in Eq. 0.3 to 700 μM [HSA].

[1] = target: T1, human serum proteins (binding ascribed fully to human serum albumin, HSA) (human, UniProt P02768 25-609); assay: cell-based or functional assay
[2] = target: T1, human serum proteins (binding ascribed …); assay: apparent Kd* by EC50 shift analysis: Jurkat viability EC50 at 0, 2 and 10% human serum, fit assuming 1:1 binding to HSA

T1 sequence (P02768 25-609 limits assumed): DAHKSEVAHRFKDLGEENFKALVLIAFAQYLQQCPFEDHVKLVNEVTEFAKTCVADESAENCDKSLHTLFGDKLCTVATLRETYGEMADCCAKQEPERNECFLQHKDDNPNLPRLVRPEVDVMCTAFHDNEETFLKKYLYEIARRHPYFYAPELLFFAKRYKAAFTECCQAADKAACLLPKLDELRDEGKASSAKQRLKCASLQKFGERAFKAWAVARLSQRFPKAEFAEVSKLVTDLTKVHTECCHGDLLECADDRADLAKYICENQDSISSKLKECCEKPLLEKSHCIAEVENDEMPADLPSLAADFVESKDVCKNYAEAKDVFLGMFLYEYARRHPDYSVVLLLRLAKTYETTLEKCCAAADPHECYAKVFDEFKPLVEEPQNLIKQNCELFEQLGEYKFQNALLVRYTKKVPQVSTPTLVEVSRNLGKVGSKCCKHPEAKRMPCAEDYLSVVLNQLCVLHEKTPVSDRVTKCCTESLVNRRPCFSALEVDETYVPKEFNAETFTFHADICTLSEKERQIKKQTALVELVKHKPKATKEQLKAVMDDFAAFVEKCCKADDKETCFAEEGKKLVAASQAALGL

Molecule	EC50 (Jurkat cell line)	Kd (human serum proteins)	efficacy in serum-free media and in the presence of serum (Jurkat cell line; statement in words)	2% serum EC50 (Jurkat cell viability, CellTiter-Glo) [1]	10% serum EC50 (Jurkat cell viability, CellTiter-Glo) [1]	Kd [2]
CCCC[C@H](NC(=O)C1(C)CCCC=CCCCC(C)(NC(=O)[C@H](C)NC(=O)[C@H](CC(C)C)NC(=O)[C@H](Cc2c[nH]cn2)NC(=O)[C@H](CCCNC(=N)N)NC(=O)[C@H](C)NC(=O)[C@@H](NC(=O)[C@H](CC(N)=O)NC(=O)[C@H](CCCNC(=N)N)NC(=O)CC)[C@@H](C)CC)C(=O)N[C@@H](C(C)C)C(=O)NC(C)(C)C(=O)N[C@@H](CC(=O)O)C(=O)N1)C(=O)N[C@@H](CC(=O)O)C(=O)N[C@@H](CCCNC(=N)N)C(=O)N[C@@H](CO)C(=O)N[C@H](C(N)=O)[C@@H](C)CC (stereo partly drawn) [Compound 5, Pr-RNIARHLA$VAibD$NleDRSI-NH2] (Propionyl-RNIARHLA[ξαMeNle(6-ylidene)]V[Aib]D[ξαMeNle(6-ylidene)][Nle]DRSI-NH2; staple 9-13)	1.6 µM	0.2 µM	–	–	–	–
CCCC[C@H](NC(=O)C1(C)CCCC=CCCCC(C)(NC(=O)C(C)(C)NC(=O)[C@H](CC(C)C)NC(=O)[C@H](Cc2c[nH]cn2)NC(=O)[C@H](CCCNC(=N)N)NC(=O)[C@H](C)NC(=O)[C@@H](NC(=O)[C@H](CC(N)=O)NC(=O)[C@H](CCCNC(=N)N)NC(=O)CC)[C@@H](C)CC)C(=O)N[C@@H](C(C)C)C(=O)NC(C)(C)C(=O)N[C@@H](CC(=O)O)C(=O)N1)C(=O)N[C@@H](CC(=O)O)C(=O)N[C@@H](CCCNC(=N)N)C(=O)N[C@@H](CO)C(=O)N[C@H](C(N)=O)[C@@H](C)CC (stereo partly drawn) [Compound 6, Pr-RNIARHLAib$VAibD$NleDRSI-NH2] (Propionyl-RNIARHL[Aib][ξαMeNle(6-ylidene)]V[Aib]D[ξαMeNle(6-ylidene)][Nle]DRSI-NH2; staple 9-13)	1 µM	0.4 µM	–	–	–	–
CCC(=O)N[C@@H](CCCNC(=N)N)C(=O)N[C@@H](CC(N)=O)C(=O)N[C@H](C(=O)N[C@@H](C)C(=O)N[C@@H](CCCNC(=N)N)C(=O)N[C@@H](Cc1c[nH]cn1)C(=O)N[C@@H](CC(C)C)C(=O)N[C@@H](C)C(=O)NC1(C)CCCC=CCCCC(C)(C(=O)N[C@@H](Cc2ccccc2)C(=O)N[C@@H](C)C(=O)N[C@@H](CCCNC(=N)N)C(=O)N[C@@H](CO)C(=O)N[C@H](C(N)=O)[C@@H](C)CC)NC(=O)[C@H](CC(=O)O)NC(=O)C(C)(C)NC(=O)[C@H](C(C)C)NC1=O)[C@@H](C)CC (stereo partly drawn) [Compound 7, Pr-RNIARHLA$VAibD$FARSI-NH2] (Propionyl-RNIARHLA[ξαMeNle(6-ylidene)]V[Aib]D[ξαMeNle(6-ylidene)]FARSI-NH2; staple 9-13)	2.2 µM	1.1 µM	–	–	–	–
CCCC[C@H](NC(=O)C1(C)CCCC=CCCCC(C)(NC(=O)[C@H](C)NC(=O)[C@H](CC(C)C)NC(=O)[C@H](Cc2c[nH]cn2)NC(=O)[C@H](CCCNC(=N)N)NC(=O)[C@H](C)NC(=O)[C@@H](NC(=O)[C@H](CC(N)=O)NC(=O)[C@H](CCCNC(=N)N)NC(=O)CC)[C@@H](C)CC)C(=O)N[C@@H](C(C)C)C(=O)NCC(=O)N[C@@H](CC(=O)O)C(=O)N1)C(=O)NC(C)(C)C(=O)N[C@@H](CCCNC(=N)N)C(=O)N[C@@H](CO)C(=O)N[C@H](C(N)=O)[C@@H](C)CC (stereo partly drawn) [Compound 8, Pr-RNIARHLA$VGD$NleAibRSI-NH2] (Propionyl-RNIARHLA[ξαMeNle(6-ylidene)]VGD[ξαMeNle(6-ylidene)][Nle][Aib]RSI-NH2; staple 9-13)	2.4 µM	2.3 µM	–	–	–	–
CC[C@H](C)[C@H](NC(=O)[C@H](Cc1c[nH]c2ccccc12)NC(=O)[C@H](CCCNC(=N)N)NC(C)=O)C(=O)N[C@@H](C)C(=O)N[C@@H](CCC(N)=O)C(=O)N[C@@H](C)C(=O)N[C@@H](CC(C)C)C(=O)N[C@@H](CCCNC(=N)N)C(=O)NC1(C)CCCC=CCCCC(C)(C(=O)N[C@@H](Cc2ccccc2)C(=O)N[C@@H](CC(N)=O)C(=O)N[C@@H](C)C(=O)N[C@@H](Cc2ccccc2)C(=O)N[C@@H](Cc2ccc(O)cc2)C(=O)N[C@@H](C)C(=O)N[C@@H](CCCNC(=N)N)C(=O)N[C@@H](CCCNC(=N)N)C(N)=O)NC(=O)[C@H](CC(=O)O)NC(=O)CNC(=O)[C@H]([C@@H](C)CC)NC1=O (stereo partly drawn) [Compound 14, Ac-RWIAQALR$1GD$FNAFYARR-NH2]	0.4 µM	2.3 µM	–	–	–	–
CC[C@H](C)[C@H](NC(=O)[C@H](CCCNC(=N)N)NC(=O)[C@H](CCCNC(=N)N)NC(=O)[C@H](CCCNC(=N)N)NC(=O)[C@H](CC(C)C)NC(=O)[C@H](CCCNC(=N)N)NC(=O)[C@H](CCC(=O)O)NC(C)=O)C(=O)NC1(C)CCCC=CCCCC(C)(C(=O)N[C@@H](Cc2c[nH]cn2)C(=O)N[C@@H](Cc2c[nH]cn2)C(=O)N[C@@H](CO)C(=O)N[C@H](C(N)=O)[C@@H](C)O)NC(=O)[C@H](CCCNC(=N)N)NC(=O)[C@H](CS)NC(=O)[C@H](CC(C)C)NC1=O (stereo partly drawn) [Compound 17, Ac-ERLRRRI$LCR$HHST-NH2] (Ac-ERLRRRI[ξαMeNle(6-ylidene)]LCR[ξαMeNle(6-ylidene)]HHST-NH2; staple 8-12)	12 µM	< 0.1 µM	high efficacy in serum-free media, which is substantially reduced in the presence of serum	–	–	–
CC[C@H](C)[C@H](NC(=O)[C@H](CCCNC(=N)N)NC(=O)[C@H](CCCNC(=N)N)NC(=O)[C@H](CCCNC(=N)N)NC(=O)[C@H](CC(C)C)NC(=O)[C@H](CCCNC(=N)N)NC(=O)[C@H](CCC(=O)O)NC(C)=O)C(=O)NC1(C)CCCC=CCCCC(C)(C(=O)N[C@@H](Cc2c[nH]cn2)C(=O)N[C@@H](Cc2c[nH]cn2)C(=O)N[C@@H](CO)C(=O)N[C@H](C(N)=O)[C@@H](C)O)NC(=O)[C@H](CCCNC(=N)N)NC(=O)[C@H](C)NC(=O)[C@H](CC(C)C)NC1=O (stereo partly drawn) [Compound 18, Ac-ERLRRRI$LAR$HHST-NH2] (Ac-ERLRRRI[ξαMeNle(6-ylidene)]LAR[ξαMeNle(6-ylidene)]HHST-NH2; staple 8-12)	> 20 µM	< 0.1 µM	–	–	–	–
Propionyl-RNIARHLA[S5]V[Aib]D[S5]FARSI-NH2 (staple 9-13) [Compound 7 (crosslinked polypeptide derived from human BID BH3)]	–	–	–	12.4 µM	48.2 µM	1.1 µM
Ac-DIIRNIARHLA[S5]VGD[S5][Nle]DRSI-NH2 (staple 12-16) [Compound 1 (crosslinked polypeptide derived from human BID BH3)]	–	–	–	73.9 µM	> 100 µM	< 0.1 µM
Propionyl-RNIARHLA[S5]V[Aib]D[S5][Nle]DRSI-NH2 (staple 9-13) [Compound 5 (crosslinked polypeptide derived from human BID BH3)]	–	–	–	16.7 µM	63 µM	0.2 µM
Propionyl-RNIARHL[Aib][S5]V[Aib]D[S5][Nle]DRSI-NH2 (staple 9-13) [Compound 6 (crosslinked polypeptide derived from human BID BH3)]	–	–	–	10.1 µM	49.7 µM	0.4 µM
Propionyl-RNIARHLA[S5]VGD[S5][Nle][Aib]RSI-NH2 (staple 9-13) [Compound 8 (crosslinked polypeptide derived from human BID BH3)]	–	–	–	10.5 µM	37.7 µM	2.3 µM
